Measured values from patent publication US20250213542A1, “DEVICES AND METHODS FOR DELIVERING SYNERGISTIC ACTIVE AGENTS TO TARGET SITES” (IRRIMAX Corporation, priority 2023, published 2025).
Read-outs that look alike come from different tables or passages of the source.

Experiments:
Format in all cases: cell-based
E. coli (ATCC BAA 1427) [1] = assay: Minimum inhibitory concentration determination, serial 2-fold dilution; conditions: Escherichia coli, BAA1427, 250 μg/mL (0.025% w/w), positive control, read-out: Average Growth Inhibition (%)
Description: (§1) The minimal inhibitory concentration (MIC, the minimum inhibitory concentration required for 90% growth reduction) of octenidine was determined against S. aureus (ATCC 6538), P. aeruginosa (ATCC 15442), and E. coli (ATCC BAA 1427) by serial 2-fold dilution experiments. A solution of chlorhexidine (0.025% w/w) was used as a positive control and comparator.

[2] = tested on: P. aeruginosa (ATCC 15442); assay: as above; conditions: Pseudomonas aeruginosa, ATCC15442, read-out: Average Growth Inhibition (%)
Description: as §1

S. aureus (ATCC 6538) [3] = assay: as above; conditions: Staphylococcus aureus, ATCC6538, read-out: Average Growth Inhibition (%)
Description: as §1

E. coli (ATCC BAA 1427) [4] = assay: Minimal bactericidal concentration determination, serial 2-fold dilution
Description: (§2) The minimal bactericidal concentration (MBC) of octenidine dihydrochloride was determined against S. aureus (ATCC 6538), P. aeruginosa (ATCC 15442), and E. coli (ATCC BAA 1427) by serial 2-fold dilution experiments. A solution of chlorhexidine (0.025% w/w) was used as a positive control and comparator.

[5] = tested on: P. aeruginosa (ATCC 15442); assay: as above; conditions: 250 μg/mL (0.025% w/w), positive control
Description: as §2

S. aureus (ATCC 6538) [6] = assay: as above; conditions: 250 μg/mL (0.025% w/w), positive control
Description: as §2

E. coli = assay: Chequerboard assay, FIC and synergy analysis; conditions: Escherichia coli
Description: (§3) Chlorhexidine gluconate (CHG) and octenidine dihydrochloride (OCT) were analyzed by chequerboard assay with each test organism to determine potential additive, synergistic, and antagonistic activity. The test organisms S. aureus, P. aeruginosa, and E. coli were tested at ranges of chlorhexidine gluconate (0.122-15.625 μg/ml, 1.25-160 μg/ml, and 0.125-16 μg/ml, respectively) and octenidine dihydrochloride (0.029-3.75 μg/mL, 0.029-3.75 μg/mL, and 0.029-3.75 μg/mL, respectively). FIC was calculated by the following Equation 2: […]

P. aeruginosa = assay: Chequerboard assay, FIC and synergy analysis; conditions: Pseudomonas aeruginosa
Description: as §3

S. aureus = assay: Chequerboard assay, FIC and synergy analysis; conditions: Staphylococcus aureus
Description: as §3

[7] = in presence of OCT, read-out: MIC of CHG in Presence of OCT

N=C(NCCCCCCNC(=N)NC(=N)Nc1ccc(Cl)cc1)NC(=N)Nc1ccc(Cl)cc1 [Chlorhexidine gluconate, 1-[amino-[6-[amino-[amino-(4-chlorophenyl)amino-methylidene]amino-methylidene]aminohexylimino]methyl]imino-N-(4-chlorophenyl)-methanediamine; (2R,3S,4R,5R)-2,3,4,5,6-pentahydroxyhexanoic acid.]
inhibition at 250 µg/mL (E. coli (ATCC BAA 1427) [1]): 63% | inhibition at 250 µg/mL [2]: 81% | inhibition at 250 µg/mL (S. aureus (ATCC 6538) [3]): 121% | CFU/mL (E. coli (ATCC BAA 1427) [4]): 0 CFU/mL | Number of Colonies (E. coli (ATCC BAA 1427) [4]): 0 | Number of Colonies (E. coli (ATCC BAA 1427) [4]; E. coli (ATCC BAA 1427), 250 μg/mL (0.025% w/w), positive control): no colonies | CFU/mL [5]: 0 CFU/mL | Number of Colonies [5]: 0 | Number of Colonies ([5]; listed as chlorhexidine): no colonies | CFU/mL (S. aureus (ATCC 6538) [6]): 0 CFU/mL | Number of Colonies (S. aureus (ATCC 6538) [6]): 0 | Number of Colonies (S. aureus (ATCC 6538) [6]; listed as chlorhexidine): no colonies | MIC (E. coli; [7]): 8 µg/mL | MIC (E. coli; read-out: MIC of CHG Alone): 16 µg/mL | MIC (P. aeruginosa; read-out: MIC of CHG Alone (μg/mL)): 32 µg/mL | MIC (P. aeruginosa; read-out: MIC of CHG in Presence of OCT (μg/mL)): 16 µg/mL | MIC (S. aureus; [7]): 2 µg/mL | MIC (S. aureus; read-out: MIC of CHG Alone): 4 µg/mL
